Measurements published in the supplement of paper PMC10307832.

Columns and labels:
Assay in all cases: relative viability (nuclei count vs DMSO), 5 days (fraction); higher = more cells survive
Vemurafenib + Pictilisib = compound: CCCS(=O)(=O)Nc1ccc(F)c(C(=O)c2c[nH]c3ncc(-c4ccc(Cl)cc4)cc23)c1F [Vemurafenib] + CS(=O)(=O)N1CCN(Cc2cc3nc(-c4cccc5[nH]ncc45)nc(N4CCOCC4)c3s2)CC1 [Pictilisib] (partner 1 µM)
Summary of the method: (§1)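 Lung cancer cell lines in 1536-well plates got either a single drug or a fixed anchor-drug dose together with five library-drug doses (not always all listed) in √10 steps, by pin tool, on the day after seeding. Nuclei were counted after 5 days, and relative viability is the treated-to-vehicle ratio of nuclei counts. Values are medians of duplicate plates.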

OSI-027 + Linsitinib = compound: COc1cccc2cc(-c3nc([C@H]4CC[C@H](C(=O)O)CC4)n4ncnc(N)c34)[nH]c12 [OSI-027] + C[C@]1(O)C[C@@H](c2nc(-c3ccc4ccc(-c5ccccc5)nc4c3)c3c(N)nccn32)C1 [Linsitinib] (partner 1 µM)
Summary of the method: as §1

OSI-027 + Phenformin = compound: COc1cccc2cc(-c3nc([C@H]4CC[C@H](C(=O)O)CC4)n4ncnc(N)c34)[nH]c12 [OSI-027] + N=C(N)NC(=N)NCCc1ccccc1 [Phenformin] (partner 250 µM)
Summary of the method: as §1

Alpelisib + Palbociclib = compound: Cc1nc(NC(=O)N2CCC[C@H]2C(N)=O)sc1-c1ccnc(C(C)(C)C(F)(F)F)c1 [Alpelisib] + CC(=O)c1c(C)c2cnc(Nc3ccc(N4CCNCC4)cn3)nc2n(C2CCCC2)c1=O [Palbociclib] (partner 0.5 µM)
Summary of the method: as §1

Cell Line: UMC-11
- relative viability (Vemurafenib + Pictilisib; first compound 0.03162 µM): 0.867
- relative viability (Vemurafenib + Pictilisib; first compound 0.1 µM): 0.801
- relative viability (Vemurafenib + Pictilisib; first compound 0.3162 µM): 0.714
- relative viability (Vemurafenib + Pictilisib; first compound 1 µM): 0.348
- relative viability (OSI-027 + Linsitinib; first compound 0.01 µM): 1
- relative viability (OSI-027 + Linsitinib; first compound 0.03162 µM): 1.04
- relative viability (OSI-027 + Linsitinib; first compound 0.1 µM): 0.944
- relative viability (OSI-027 + Linsitinib; first compound 0.3162 µM): 0.676
- relative viability (OSI-027 + Linsitinib; first compound 1 µM): 0.468
- relative viability (OSI-027 + Phenformin; first compound 0.01 µM): 0.337
- relative viability (OSI-027 + Phenformin; first compound 0.03162 µM): 0.366
- relative viability (OSI-027 + Phenformin; first compound 0.1 µM): 0.311
- relative viability (OSI-027 + Phenformin; first compound 0.3162 µM): 0.311
- relative viability (OSI-027 + Phenformin; first compound 1 µM): 0.274
- relative viability (Alpelisib + Palbociclib; first compound 0.04 µM): 0.333
- relative viability (Alpelisib + Palbociclib; first compound 0.1265 µM): 0.3
- relative viability (Alpelisib + Palbociclib; first compound 0.4 µM): 0.357
- relative viability (Alpelisib + Palbociclib; first compound 1.265 µM): 0.307
- relative viability (Alpelisib + Palbociclib; first compound 4 µM): 0.328
